# Measurements published in US20240376069A1, “COMPOUNDS AND METHODS FOR LABELING LIPIDATED NUCLEOTIDES” (The Research Foundation for The State University of New York, priority 2023, published 2024).
# What was measured:
# [1] = test system: HEK293T cells; experiment: In-cell fluorescent labelling of SelU-mediated tRNA geranylation, confocal imaging; type: cell-based
# Protocol: The HEK293T cells were washed twice with PBS, and trypsin was added for 1 min. Then 2.0 mL DMEM medium was added to the mixed well, followed by centrifuged at 1,000 r.p.m for 5 min, and the supernatant was discarded. Fresh medium was added to resuspend the cell pellet and cells were seeded in a confocal dish at the density of 0.5×1 05, the cells were gently mixed using pipette, and then placed in CO2 incubator. 150 mM sterile NaCl solution was prepared as a diluent for DNA and Vigofect (Vigorous Biotechnology Beijing Co., Ltd.). The culture medium in the confocal dish was then replaced with fresh complete culture medium before transfection, and the culture was incubated at 37° C. under 5% CO2 atmosphere. […] Configure the transfection working solution. […] Next, 2.5 μl VigoFect was added to the diluent (total 100 μl), and the solution was mixed gently and placed at room temperature for 5 min. Next, the diluted VigoFect was added into the diluted DNA solution gently, and the resulting transfection working solution was incubated at room temperature for 15 min. Subsequently, the working solution was added to the cell culture, mixed gently and incubated for 24 h. […] Cells were washed with PBS 3 times and then fixed with 4% paraformaldehyde for 15 min, and subsequently permeabilized with 0.5% Triton X-100 for 15 min. […]
# [2] = target: SelU (Escherichia coli, UniProt P33667); type: biochemical, E. coli; settings: for modified RNA residues after click reaction and RNase cleavage (recognition by SelU): HPLC and MS-spec data
# [3] = test system: prenylated tRNA; experiment: Direct fluorescent labelling of prenylated tRNA by Ene-ligation, in-gel fluorescence; settings: 10 μM probe; total RNAs isolated from E. coli
# Protocol: tRNA (1.0 mg) isolated from E. coli using Zymo purification kit strictly following the instruction protocol was dissolved in PBS buffer (0.1 M, pH=7.4) and the PTAD-DBCO-Cy5 probe (1.0 mM) generated by in-situ oxidation with N-bromosuccinimide (NBS, 1 M in DMF) was added in one portion at 4° C. The mixture was incubated at 4° C. for 15 min in a sterile tube. And excess fluorescent probe was removed by 3K filter (Millipore) and the resulting nucleic acid was analyzed by in-gel fluorescence (Scheme S8).
# [4] = Iodine-mediated cyclisation of nucleoside i^6A; type: physicochemical; settings: optimized concentration of iodine reagent
# Protocol: Model reactions of i^6A nucleoside (4). The model reactions were carried out in DMSO-d6 in order to facilitate in situ NMR characterization without further purification. i^6A (4, 0.15 mmol) was dissolved in DMSO-d6 (0.5 mL), and iodine (0.45 mmol) was added. The mixture was stirred at 37° C. for 5 minutes and was taken out for ^1H NMR.
# The reactions were conducted in DMSO-d^6 to enable in situ NMR characterization without the need for additional purification. i^6A (4, 0.15 mmol) was dissolved in DMSO-d^6 (0.5 mL), and iodine (0.45 mmol in DMSO-d^6) was subsequently added to the solution. The mixture was then stirred at 37° C. for 5 minutes. After this incubation period, the reaction mixture was subjected to ^1H NMR, ^13C NMR, HPLC, UV and LC-MS analysis.
# [5] = test system: HeLa cells; experiment: Cytotoxic assays of i^6A (4) towards HeLa cells; type: cell-based
# Source text: In order to better detect the involvement of i^6A (4) in the transcription process of cellular RNA, we also tested the effect of i^6A (4) on cytotoxicity and optimized the concentration of i^6A (4) to treat cells.
# [6] = test system: HeLa cells; experiment: Incorporation of i^6A into total RNA of eukaryotic cells, detected with PTAD-DBCO-FITC (8); type: cell-based
# Protocol: Next, we will further test whether i^6A (4) can participate in the RNA transcription process in eukaryotic cells. First culture the HeLa cells in a six-well plate to 70%-80%. […] After 12 hours of culture, collect all cells and extract total RNA.
# To the 1.5 mL Eppendorf tube containing PTAD-DBCO-FITC precursor (7, 10 μL, 10 mM solution in DMF) was added N-bromo succinimide (1.0 μL, 100 mM in DMF). The mixture was vortexed gently and formation of the light-red color was observed. The reagent was kept on ice and used for the i^6A-incorporated RNA labelling immediately. Labeling protocol is the same stated above.
# HeLa cells was obtained from ATCC. HeLa cells were cultured in DMED medium with 10% fetal calf serum. Cells were maintained in a humidified incubator at 5% CO2 and 37° C. To label RNA in vivo, HeLa cells were cultured in 6-well plates to 70%-80%. […] Then it will be detected by agarose gel electrophoresis. […]
# The i^6A-incorporated total RNA ([…], 20 ng/mL in DEPC water) was incubated with PTAD-DBCO-FITC ([…] of a 0.1 mM solution), shaken for 30 minutes at 0° C. The RNA was then analyzed through gel electrophoresis on a 1% agarose gel. […] Gels were analyzed by in-gel fluorescence measurements on a FluorChem® FC3 imager (Alpha Innotech). Fluorescence was measured with a blue light excitation wavelength (475 nm) and a green filter emission (537 nm).
# [7] = Dynamic investigation of the Ene-ligation of i^6A with PTAD by proton NMR; type: physicochemical; settings: i^6A 30 mM, PTAD 0.15 mmol, CD3CN/D2O (v/v, 1/1), room temperature, within 5 minutes
# Protocol: Nucleoside i^6A (4, 10 mg, 0.03 mmol) were dissolved in CD3CN/D2O (1.0 mL, v/v=1:1, final concentration=30 mM). PTAD (5, 26 mg, 0.15 mmol) was then added to the solution (final concentration=150 mM), and the reaction mixture was allowed to stand at room temperature. The ^1H NMR spectra were recorded by proton NMR (400 MHz).
# The nucleoside i^6A (10 mg, 0.03 mmol) was dissolved in a mixture of CD3CN and D2O (0.5 mL, volume-to-volume ratio of 4:1, resulting in a final concentration of 60 mM). Subsequently, 4-phenyl-3H-1,2,4-triazole-3,5(4H)-dione (PTAD, 26 mg, 0.15 mmol, equivalent to 5 times the amount of i^6A) was added to the solution (resulting in a final concentration of 300 mM). The reaction mixture was then allowed to stand at room temperature. The ^1H NMR spectra were obtained using a 400 MHz ^1H NMR instrument with CD3CN/D2O as the solvent.
# [8] = target: T7 RNA polymerase (Escherichia phage T7, UniProt P00573)
# T7 RNA polymerase, sequence (P00573 whole entry): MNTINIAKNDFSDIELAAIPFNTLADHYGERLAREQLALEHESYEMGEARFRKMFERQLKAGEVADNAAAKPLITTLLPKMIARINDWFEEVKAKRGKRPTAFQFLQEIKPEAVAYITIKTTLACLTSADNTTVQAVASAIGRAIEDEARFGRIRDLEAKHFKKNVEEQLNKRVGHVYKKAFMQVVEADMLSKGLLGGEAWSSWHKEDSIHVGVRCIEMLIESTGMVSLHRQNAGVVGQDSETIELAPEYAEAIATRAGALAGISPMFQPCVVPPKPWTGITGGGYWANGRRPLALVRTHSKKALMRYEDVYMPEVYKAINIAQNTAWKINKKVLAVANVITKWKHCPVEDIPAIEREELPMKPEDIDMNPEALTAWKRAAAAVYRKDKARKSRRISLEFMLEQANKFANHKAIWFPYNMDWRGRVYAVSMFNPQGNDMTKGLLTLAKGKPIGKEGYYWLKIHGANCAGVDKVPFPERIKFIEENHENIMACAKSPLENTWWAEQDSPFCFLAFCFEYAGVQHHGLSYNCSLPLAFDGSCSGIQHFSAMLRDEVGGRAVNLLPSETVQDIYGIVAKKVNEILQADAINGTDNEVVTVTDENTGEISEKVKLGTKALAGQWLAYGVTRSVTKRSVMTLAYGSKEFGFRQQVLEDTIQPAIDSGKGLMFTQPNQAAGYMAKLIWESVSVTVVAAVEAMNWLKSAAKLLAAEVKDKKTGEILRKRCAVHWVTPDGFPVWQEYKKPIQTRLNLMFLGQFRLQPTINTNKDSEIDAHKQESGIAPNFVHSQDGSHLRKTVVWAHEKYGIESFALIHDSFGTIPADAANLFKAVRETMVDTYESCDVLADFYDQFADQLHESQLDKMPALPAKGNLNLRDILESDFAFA
# Protocol: Using the T7P-EGFP constructed above as a template and rNTP as substrates, the reaction was carried out at 37° C. for 2 hours which was catalyzed by T7 RNA polymerase. After the reaction, the template DNA T7P-EGFP was degraded with DNase I. Finally, the RNA was precipitated and purified, and the transcription effect of the RNA was detected by agarose gel electrophoresis. The T7P-EGFP template sequence and HeLa genomic RNA were used as the control group.
# EGFP-RNA was transcript with T7 transcription kit (Takara) in vitro. The system was kept at 37° C. for 2 hours. 1-4 extended to 6 hours. Then the templets were digested with DNase 1, 37° C. for 30 minutes. […] RNA concentration was determined with a Nanodrop One microvolume UV-Vis. spectrophotometer.
# SelU, sequence (P33667 whole entry): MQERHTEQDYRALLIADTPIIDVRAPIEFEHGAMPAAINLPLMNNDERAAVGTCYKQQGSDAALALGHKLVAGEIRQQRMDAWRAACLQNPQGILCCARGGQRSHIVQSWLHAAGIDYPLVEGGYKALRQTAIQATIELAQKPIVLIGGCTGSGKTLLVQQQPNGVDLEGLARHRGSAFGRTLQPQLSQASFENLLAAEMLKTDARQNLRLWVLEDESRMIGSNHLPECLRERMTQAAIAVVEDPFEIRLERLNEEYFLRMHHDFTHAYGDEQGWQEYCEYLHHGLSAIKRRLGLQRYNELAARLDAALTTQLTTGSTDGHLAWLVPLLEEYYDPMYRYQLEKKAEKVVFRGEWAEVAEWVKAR
smiles,measurement,setting,value
"CC(C)=CCC/C(C)=C/COP(=O)(O)OP(=O)(O)O [Ge1, (E)-3,7-dimethylocta-2,6-dien-1-yldiphosphate Tetrabutylammonium Trimer, reference compound]","red fluorescence of geranylated tRNA in cells, direct labelling","[1]; transfected SelU and 5s (tRNA^Lys), probe PTAD-DBCO-Cy5",clearly showed the red fluorescence
"CC(C)=CCCC(C)CCOP(=O)(O)OP(=O)(O)O (centres unmarked) [Ge2, 3,7-dimethyloct-6-en-1-yl pyrophosphate]",modified RNA residues after click reaction and RNase cleavage (recognition by SelU),[2],no modified RNA residues
"CC(C)=CCCOP(=O)(O)OP(=O)(O)O [Ge3, 4-methylpent-3-en-1-yl Diphosphate Tetrabutyl Ammonium Trimer]",modified RNA residues after click reaction and RNase cleavage (recognition by SelU),[2],no modified RNA residues
C/C(=C\COP(=O)(O)OP(=O)(O)O)CC/C=C(\C)CN=[N+]=[N-] [Ge5],"fluorescent labelling of tRNA^Gln, Glu, Lys after SelU-mediated transfer of the ligand",[2],efficient fluorescent signal of tRNA was observed
same,"red fluorescence in cells, two-step ACT-Flu approach","[1]; SelU co-transfected, probe DBCO-Cy5",strong red florescence
C/C(=C\COP(=O)(O)OP(=O)(O)O)CC/C=C(\C)COC(=O)CCC(=O)N1Cc2ccccc2C#Cc2ccccc21 [Ge7],"fluorescent labelling of tRNA^Gln, Glu, Lys after SelU-mediated transfer of the ligand",[2],failed
CN1/C(=C/C=C/C=C/C2=[N+](CCCCCC(=O)NCCC(=O)N3Cc4ccccc4-c4c(nnn4CCOc4ccc(N5C(=O)N=NC5=O)cc4)-c4ccccc43)c3ccccc3C2(C)C)C(C)(C)c2ccccc21.[Cl-] [PTAD-DBCO-Cy5],fluorescent signal of total RNAs treated with the probe,[3],a red fluorescent signal was observed
"CC(C)=CCNc1ncnc2c1ncn2[C@@H]1O[C@H](CO)[C@@H](O)[C@H]1O [i^6A (4), N^6-(3-methylbut-2-enyl)-adenosine]",time to full conversion with iodine,[4],less than 5 minutes
same,cytotoxic concentration,[5]; HeLa cells,800 µM
same,effect on cell viability,[5]; concentration 800 μM,cell viability will be significantly inhibited
same,effect on cells,[5]; concentration 2.0 mM,significant inhibitory effect on cells
same,effect on cell viability,[5]; concentration within 400 μM,little effect on cell viability
same,fluorescence signal of total RNA after PTAD-DBCO-FITC (8) staining,"[6]; cells cultured in the presence of i^6A, none in control group",significant fluorescence signal was detected
same,fluorescence signal of total RNA after PTAD-DBCO-FITC (8) staining,[6]; i^6A 800 μM,weaker RNA fluorescence signal
same,conversion yield in reaction with PTAD,[7],approximately 50%
CC(C)=CCNc1ncnc2c1ncn2C1OC(COP(=O)(O)OP(=O)(O)OP(=O)(O)O)C(O)C1O (centres unmarked) [i^6ATP],recognition efficiency of T7 RNA polymerase,"[8]; compared with K4, preliminary experiments",significantly higher than that of K4
same,recognition efficiency by T7 RNA polymerase,[8]; compared with rATP,low comparing with rATP
